From US12357695B2, “Peptides and nanoparticles for intracellular delivery of molecules” (AADIGEN, LLC, priority 2019, dated 2025)
“Also recorded” adds a separate entry of the source. Square brackets hold non-standard residues; d marks the D form. Primed or numbered codes have the meaning given here. PEG4′ = four-unit PEG spacer; PEG2′ = two-unit PEG spacer; PEG7′ = (PEG)7 moiety; Ava = NCCCCC(=O)O; βAla = NCCC(=O)O

Key:
mice or rat models = assay: Summary of cargo delivery to targeted organ (Table 1); type: in vivo; conditions: cargoes and route (IV, IM, SQ, NB) per peptide as listed in Table 1
Text: Table 1 lists a summary of cell-penetrating peptides that have been proven successful in delivering various cargo molecules to on or more targeted organ (e.g., by intravenous (IV), intramuscular (IM), or subcutaneous (SQ) administration, or intratraccheal instillation or nebulization (NB)) in mice or rat models.

mice = assay: In vivo delivery of Luciferase mRNA by targeted ADGN-peptide variants, intravenous (Example 9); conditions: 5 μg Luc mRNA
293T cells = assay: Cellular delivery of Luciferase mRNA, luciferase expression at 72 hrs; type: cell-based; conditions: 0.25 μg Luc mRNA; for reduction of efficiency / luciferase expression by modification or linker vs unmodified ADGN peptide: absence of serum or heparan sulfate; for luciferase expression: absence of serum or heparan sulfate treatment; for reduction of efficiency / luciferase expression after serum treatment: complexes incubated 3 hrs in 25% serum prior transfection
Method: FIGS. 1A-1C show luciferase expression in 293T cells treated with ADGN-peptide/mRNA complexes. 293T cells cultured in 48 well plates were transfected with ADGN-peptide nanoparticles. ADGN-100, ADGN-106, ADGN-100RI, ADGN-106RI, ADGN-100 Stearyl, ADGN-Hydro1, ADGN-Hydro2, ADGN-Hydro3, ADGN-Hydro4, ADGN-Hydro5, ADGN-Hydro6 and ADGN-peptide/ADGN-100PEG 10% nanoparticles containing 0.25 μg mRNA were formed in sterile water, diluted in sterile water containing 5% Sucrose and filtered with 0.45 μm PES filters. ADGN/mRNA complexes were incubated for 3 hrs in the presence of either 25% serum or heparan sulfate prior transfection. Luciferase expression was monitored 72 hours post transfection and results were reported as RLU (luminescence):mg of protein.
Complex formation with mRNA. The following protocols were used for the transfection of 2-5 106 Cells or Cells at confluency of about 70-80% cultured in 24 well plates. ADGN peptide/mRNA particles were prepared at a 20:1 molar ratio of ADGN-Peptide/mRNA. using (0.25 μg) mRNA. Luc mRNA (0.25 μg) was diluted in 20 μl of sterile water (GIBCO) at room temperature. 5 μl Final Peptide Solution was added to obtain a total volume of 20 μl. The volume was adjusted to 50 μl with sterile water and was mixed gently with vortex 1 min low speed and incubated 30 min at room temperature. Then the volume was made up to 100 μl by adding sterile water containing 5% sucrose, and the solution was mixed gently with vortex 1 min low speed and incubate 5 min at 37° C. and then was proceeded to cell transfection.
Transfection protocol. Protocol is reported for 24 well plate format. Cells were cultured in Dulbecco's Modified Eagle's Medium (DMEM), supplemented with 2 mM glutamine, 1% antibiotics (streptomycin 10,000 μg/mL, penicillin, 10,000 IU/mL) and 10% (w/v) foetal calf serum (FCS), at 37° C. in a humidified atmosphere containing 5% CO2. 24 well plates seeded with 150,000 cells the day prior to transfection were grown to 50-60% confluence and set up to be at about 70% confluences at the time of transfection. Before transfection, cells were washed twice with DMEM. Cells were then overlaid with 0.1 ml of ADGN-peptide/cargo complex solution containing 0.25 μg mRNA, 0.15 μg plasmid DNA or 10-25 nM siRNA, mixed gently, and incubated for 10 min at 37° C. 0.2 mL of fresh DMEM, were added and cells were incubated for 20 min at 37° C. 1 mL of complete DMEM containing 15% FCS were then added in order to reach a final FCS concentration of 10%, without removing the overlay of ADGN-peptide/cargo complexes. Cells were returned to the incubator (37° C., 5% CO2) and 72 hrs post transfection.
ADGN-peptides were evaluated for cellular delivery of Luciferase mRNA in 293T cells. A single dose of mRNA of 0.25 μg was evaluated. Luc mRNA (0.25 μg) in sterile water (GIBCO) were mixed with ADGN-100, ADGN-100RI, ADGN-106, ADGN-106RI, ADGN-100 Stearyl, ADGN-Hydro1, ADGN-Hydro2, ADGN-Hydro5 and ADGN-Hydro6. ADGN-peptide/mRNA complexes were filtered with 0.45 μm PES filter. In order to evaluate the stability of the ADGN/mRNA complexes in high serum and cell culture conditions, the complexes were incubated for 3 hrs in the presence of either 25% serum or heparan sulfate prior transfection, then 293T cells were transfected and Luciferase expression was monitored at 72 hrs.
ADGN-106 peptides containing YIGSR targeting sequence were evaluated for cellular delivery of Luciferase mRNA in 293T cells. A single dose of mRNA of 0.25 μg was evaluated. Luc mRNA (0.25 μg) in sterile water (GIBCO) were mixed with ADGN-106 and ADGN-106Hydro variant. ADGN-peptide/mRNA complexes were filtered with 0.45 μm PES filter. The ADGN-106/mRNA complexes were incubated for 3 hrs in the presence of 25% serum prior transfection, then 293T cells were transfected and Luciferase expression was monitored at 72 hrs.

Substance | Targeted Organ (mice or rat models) | target delivery and expression of mRNA (tissues) (mice) | also measured
AC-ALWRA(GalNac)LWRLWRSLWRLLWKA-NH2 [ADGN-106GALNAC] | Liver | mRNA accumulation in the liver | 
Ac-ASSLNIA-Ava-KWWERWWREWPRKRR-NH2 [ADGN-103C] |  | negligible luciferase expression | 
Ac-CARPAR-WRSAGWRWRLWRVRSWSR-NH2 (Ac-CARPARWRSAGWRWRLWRVRSWSR-NH2) [ADGN-101] | Heart/Lung | heart and muscles | increase of luciferase expression / efficiency in the lung relative to parent peptide (mice): 6 fold
Ac-CKRAV-RWWLRWASRWFSRWAWWR-NH2 [ADGN-109b] |  | the lung, heart and muscles | 
Ac-CKTRRVP-WRALWRLWRSLWRLLWKA-NH2 (Ac-CKTRRVPWRALWRLWRSLWRLLWKA-NH2) [ADGN-106TD] | Muscle/Heart | heart and muscles | 
Ac-KSYDTYAAETR-RWASRWFSRWAWWR-NH2 [ADGN-109D] |  | the brain and lymphnode and at lower level in liver and kidney | 
Ac-KSYDTY[Ava]ALRWLRWASRWFSRWAWR-NH2 [ADGN-109] |  | the brain and lymphnode and at lower level in liver and kidney | 
Ac-KWRSA(GalNac)LWRWRLWRVRSWSR-NH2 (Ac-KWRSA[GalNAc]LWRWRLWRVRSWSR-NH2; not fully specified; printed as Ac-KWRSA(GalNac)LWRWRLWRVRSWSR-NH2) [ADGN-100GALNAC] | Liver | mRNA accumulation in the liver | 
Ac-LSSRLDA-Ava-KWWERWWREWPRKRR [ADGN-104] |  | heart and muscles and at lower level in the liver | 
Ac-SYTSSTM-Ava-KWWERWWREWPRKRR [ADGN-105] |  | the brain and at lower level in liver, lung and lymphnode | 
Ac-SYTSSTM-Ava-βALWRALWRLWRSLWRLLWKA-NH2 (Ac-SYTSSTM[Ava][βAla]LWRALWRLWRSLWRLLWKA-NH2; SMILES CSCC[C@H](NC(=O)[C@@H](NC(=O)[C@H](CO)NC(=O)[C@H](CO)NC(=O)[C@@H](NC(=O)[C@H](Cc1ccc(O)cc1)NC(=O)[C@H](CO)NC(C)=O)[C@@H](C)O)[C@@H](C)O)C(=O)NCCCCC(=O)NCCC(=O)N[C@@H](CC(C)C)C(=O)N[C@@H](Cc1c[nH]c2ccccc12)C(=O)N[C@@H](CCCNC(=N)N)C(=O)N[C@@H](C)C(=O)N[C@@H](CC(C)C)C(=O)N[C@@H](Cc1c[nH]c2ccccc12)C(=O)N[C@@H](CCCNC(=N)N)C(=O)N[C@@H](CC(C)C)C(=O)N[C@@H](Cc1c[nH]c2ccccc12)C(=O)N[C@@H](CCCNC(=N)N)C(=O)N[C@@H](CO)C(=O)N[C@@H](CC(C)C)C(=O)N[C@@H](Cc1c[nH]c2ccccc12)C(=O)N[C@@H](CCCNC(=N)N)C(=O)N[C@@H](CC(C)C)C(=O)N[C@@H](CC(C)C)C(=O)N[C@@H](Cc1c[nH]c2ccccc12)C(=O)N[C@@H](CCCCN)C(=O)N[C@@H](C)C(N)=O) [ADGN-106TB] | Brain/Liver | the brain | 
Ac-TGNYKALHPDHNG-WRSALRWRLWRWSR-NH2 [ADGN-102] | Brain/Lung | the brain | increase of luciferase expression / efficiency in the lung relative to parent peptide (mice): 3 fold
Ac-THRPPNWSPVWP-RALWRLWRSLWRLRWKA-NH2 (Ac-THRPPNWSPVWPRALWRLWRSLWRLRWKA-NH2) [ADGN-106TC] | Brain | the brain | 
Ac-YIGSR-(G)2-ALWRALWRLWRSLWRLLWKA-NH2 [ADGN-106-Hydro-7] |  |  | reduction of efficiency / luciferase expression by modification or linker vs unmodified ADGN peptide (293T cells): 28%
Ac-YIGSR-(G)4-ALWRALWRLWRSLWRLLWKA-NH2 (Ac-YIGSRGGGGALWRALWRLWRSLWRLLWKA-NH2) [ADGN-106-Hydro-1] |  |  | luciferase expression (293T cells): high level of luciferase expression; reduction of efficiency / luciferase expression after serum treatment (293T cells): 40%
Ac-YIGSR-(PEG)2-βALWRALWRLWRSLWRLLWKA-NH2 (Ac-YIGSR[PEG2′][βAla]LWRALWRLWRSLWRLLWKA-NH2) [ADGN-106-HYPEG2] | Tumor/Lung |  | luciferase expression (293T cells): high level of luciferase expression; reduction of efficiency / luciferase expression after serum treatment (293T cells): 21%
Ac-YIGSR-(PEG)4-βALWRALWRLWRSLWRLLWKA-NH2 (Ac-YIGSR[PEG4′][βAla]LWRALWRLWRSLWRLLWKA-NH2) [ADGN-106-HYPEG4] | Tumor/Lung |  | reduction of efficiency / luciferase expression by modification or linker vs unmodified ADGN peptide (293T cells): 35%
Ac-YIGSR-(PEG)7-βALWRALWRLWRSLWRLLWKA-NH2 (Ac-YIGSR[PEG7′][βAla]LWRALWRLWRSLWRLLWKA-NH2) [ADGN-106-HYPEG7] |  |  | reduction of efficiency / luciferase expression by modification or linker vs unmodified ADGN peptide (293T cells): 72%
Ac-YIGSR-Ahx-ALWRALWRLWRSLWRLLWKA-NH2 [ADGN-106-Hydro-8] |  |  | increase of mRNA expression / efficiency in the liver relative to ADGN-106 or ADGN-100 (mice; liver): 2 folds; increase of efficiency in the muscle relative to ADGN-106 (mice; muscle): 5 folds; luciferase expression (293T cells): high level of luciferase expression; reduction of efficiency / luciferase expression after serum treatment (293T cells): 17%
Ac-YIGSR-Ahx-KWRSALWRWRLWRVRSWSR-NH2 [ADGN-100-Hydro-8] | Tumor/Lung |  | increase of efficiency in the kidney relative to ADGN-100 (mice; kidney): 4 folds; increase of luciferase expression / efficiency in the lung relative to parent peptide (mice): 22 fold
Ac-YIGSR-Aun(CH2)6-ALWRALWRLWRSLWRLLWKA-NH2 [ADGN-106-Hydro-5] | Tumor/Lung/; also recorded: Pancreas/Liver |  | luciferase expression (293T cells): high level of luciferase expression; reduction of efficiency / luciferase expression after serum treatment (293T cells): 15%
Ac-YIGSR-Ava(CH2)2-ALWRALWRLWRSLWRLLWKA-NH2 [ADGN-106-Hydro-3] | Tumor/Muscle |  | luciferase expression (293T cells): high level of luciferase expression; reduction of efficiency / luciferase expression after serum treatment (293T cells): 32%
Ac-YIGSR-Balwralwrlwrslwrllwka-NH2 (Ac-YIGSR[βAla]LWRALWRLWRSLWRLLWKA-NH2) [ADGN-106-Hydro] |  |  | luciferase expression (293T cells): high level of luciferase expression; reduction of efficiency / luciferase expression after serum treatment (293T cells): 80%
